From patent US20170355708A1, “POTASSIUM CHANNEL MODULATORS” (Cadent Therapeutics, Inc., priority 2016, published 2017)

What follows are compounds tested against T1, hSK2 channels (Homo sapiens, UniProt P0DP23+Q9H2S1) (assay: Whole-cell patch-clamp recording of SK2 channel current (SC100)). Settings: Stimulating Concentration required for increasing the baseline current by 100%; HEK293 cells expressing hSK2; Table 3.
T1 construct: expressed in transfected cells; host or cells: HEK293
Assay type: cell-based
Protocol: The biological activity of certain compounds were determined as follows. The ionic current through small-conductance Ca^2+-activated K^+ channels (SK channels, subtype 2) is recorded using the whole-cell configuration of the patch-clamp technique in a classic patch-clamp set-up using HEK293 tissue culture cells expressing hSK2 channels as described in Kasumu et. al., Chemistry & Biology 19, 1340-1353, Oct. 26, 2012.
The SC100 value determined is defined as the Stimulating Concentration required for increasing the baseline current by 100%.

SC100 uM | Compound
+++ (+++ means <200 nM) | Cc1cc(C)n(-c2nc(Nc3ccc(F)c(F)c3)cc(N3CCO[C@@H](CO)C3)n2)n1 (single isomer, unassigned) [Compound 121, (+)-(4-(6-((3,4-difluorophenyl)amino)-2-(3,5-dimethyl-1H-pyrazol-1-yl)pyrimidin-4-yl)morpholin-2-yl) methanol]
++ (++ means 200 nM-1000 nM) | Cc1cc(C)n(-c2nc(Nc3ccc(Cl)cc3)cc(N[C@H](C)C(N)=O)n2)n1 (single isomer, unassigned) [Compound 123, (+)-2-((6-((4-chlorophenyl)amino)-2-(3,5-dimethyl-1H-pyrazol-1-yl)pyrimidin-4-yl)amino)propanamide]
++ (++ means 200 nM-1000 nM) | Cc1cc(C)n(-c2nc(Nc3ccc(F)cc3F)cc(N3CCN[C@@H](C(N)=O)C3)n2)n1 (single isomer, unassigned) [Compound 125, (−)-4-(6-((2,4-difluorophenyl)amino)-2-(3,5-dimethyl-1H-pyrazol-1-yl)pyrimidin-4-yl)piperazine-2-carboxamide]
+++ (+++ means <200 nM) | Cc1cc(C)n(-c2cc(N3CCO[C@H](C(N)=O)C3)nc(Nc3ccc(F)c(F)c3)n2)n1 (single isomer, unassigned) [Compound 131, (+)-4-(2-((3,4-difluorophenyl)amino)-6-(3,5-dimethyl-1H-pyrazol-1-yl)pyrimidin-4-yl)morpholine-2-carboxamide]
++ (++ means 200 nM-1000 nM) | Cc1cc(C)n(-c2cc(N3C[C@@H]4C[C@H]3CN4)nc(Nc3ccc(F)cc3F)n2)n1 (stereo in doubt) [Compound 106, 4-((1S,4S)-2,5-diazabicyclo[2.2.1]heptan-2-yl)-N-(2,4-difluorophenyl)-6-(3,5-dimethyl-1H-pyrazol-1-yl)pyrimidin-2-amine]
+++ (+++ means <200 nM) | CC(=O)N1CCN(c2cc(Nc3ccc(F)c(F)c3)nc(-n3nc(C)cc3C)n2)CC1 [Compound 100, 1-(4-(6-((3,4-difluorophenyl)amino)-2-(3,5-dimethyl-1H-pyrazol-1-yl)pyrimidin-4-yl)piperazin-1-yl)ethan-1-one]
+++ (+++ means <200 nM) | CC(=O)N1CCN(c2cc(-n3nc(C)cc3C)nc(Nc3ccc(F)c(F)c3)n2)CC1 [Compound 101, 1-(4-(2-((3,4-difluorophenyl)amino)-6-(3,5-dimethyl-1H-pyrazol-1-yl)pyrimidin-4-yl)piperazin-1-yl)ethan-1-one]
++ (++ means 200 nM-1000 nM) | CC(=O)N1CCN(c2cc(Nc3ccc(F)cc3)nc(-n3nc(C)cc3C)n2)CC1 [Compound 102, 1-(4-(2-(3,5-dimethyl-1H-pyrazol-1-yl)-6-((4-fluorophenyl)amino)pyrimidin-4-yl)piperazin-1-yl)ethan-1-one]
+++ (+++ means <200 nM) | CC(=O)N1CCN(c2cc(-n3nc(C)cc3C)nc(Nc3ccc(F)cc3)n2)CC1 [Compound 103, 1-(4-(6-(3,5-dimethyl-1H-pyrazol-1-yl)-2-((4-fluorophenyl)amino)pyrimidin-4-yl)piperazin-1-yl)ethan-1-one]
++ (++ means 200 nM-1000 nM) | CC(=O)N1CCN(c2cc(Nc3ccc(F)cc3F)nc(-n3nc(C)cc3C)n2)CC1 [Compound 105, 1-(4-(6-((2,4-difluorophenyl)amino)-2-(3,5-dimethyl-1H-pyrazol-1-yl)pyrimidin-4-yl)piperazin-1-yl)ethan-1-one]
+ (+ means >1 uM) | Cc1cc(C)n(-c2cc(N3CC4(COC4)C3)nc(Nc3ccc(F)cc3F)n2)n1 [Compound 107, N-(2,4-difluorophenyl)-4-(3,5-dimethyl-1H-pyrazol-1-yl)-6-(2-oxa-6-azaspiro[3.3]heptan-6-yl)pyrimidin-2-amine]
++ (++ means 200 nM-1000 nM) | Cc1cc(C)n(-c2cc(N3CC4(COC4)C3)nc(Nc3ccc(F)c(F)c3)n2)n1 [Compound 108, N-(3,4-difluorophenyl)-4-(3,5-dimethyl-1H-pyrazol-1-yl)-6-(2-oxa-6-azaspiro[3.3]heptan-6-yl)pyrimidin-2-amine]
++ (++ means 200 nM-1000 nM) | Cc1cc(C)n(-c2nc(Nc3ccc(Cl)cc3)cc(NC(C)C(N)=O)n2)n1 (stereo not drawn) [Compound 114, 2-((6-((4-chlorophenyl)amino)-2-(3,5-dimethyl-1H-pyrazol-1-yl)pyrimidin-4-yl)amino)propanamide]
++ (++ means 200 nM-1000 nM) | Cc1cc(C)n(-c2nc(Nc3ccc(F)cc3F)cc(N3CCNC(C(N)=O)C3)n2)n1 (stereo not drawn) [Compound 115, 4-(6-((2,4-difluorophenyl)amino)-2-(3,5-dimethyl-1H-pyrazol-1-yl)pyrimidin-4-yl)piperazine-2-carboxamide]
+++ (+++ means <200 nM) | Cc1cc(C)n(-c2nc(Nc3ccc(F)c(F)c3)cc(N3CCOC(CO)C3)n2)n1 (stereo not drawn) [Compound 117, (4-(6-((3,4-difluorophenyl)amino)-2-(3,5-dimethyl-1H-pyrazol-1-yl)pyrimidin-4-yl)morpholin-2-yl)methanol]
+++ (+++ means <200 nM) | Cc1cc(C)n(-c2nc(Nc3ccc(Cl)cc3)nc3c2ncn3C(C)C)n1 [Compound 118, N-(4-chlorophenyl)-6-(3,5-dimethyl-1H-pyrazol-1-yl)-9-isopropyl-9H-purin-2-amine]
++ (++ means 200 nM-1000 nM) | Cc1cc(C)n(-c2nc(Nc3ccc(F)c(F)c3)cc(NC(C)C(N)=O)n2)n1 (stereo not drawn) [Compound 126, 2-((6-((3,4-difluorophenyl)amino)-2-(3,5-dimethyl-1H-pyrazol-1-yl)pyrimidin-4-yl)amino)propanamide]

Second part, the compound before the results:

Compound | SC100 uM
Cc1cc(C)n(-c2cc(N3CCOC(C(N)=O)C3)nc(Nc3ccc(F)c(F)c3)n2)n1 (racemic) [Compound 129, 4-(2-((3,4-difluorophenyl)amino)-6-(3,5-dimethyl-1H-pyrazol-1-yl)pyrimidin-4-yl)morpholine-2-carboxamide] | +++ (+++ means <200 nM)
Cc1cc(C)n(-c2nc(Nc3ccc(F)c(F)c3)cc(N3CCO[C@H](CO)C3)n2)n1 (single isomer, unassigned) [Compound 122, (−)-(4-(6-((3,4-difluorophenyl)amino)-2-(3,5-dimethyl-1H-pyrazol-1-yl)pyrimidin-4-yl)morpholin-2-yl)methanol] | ++ (++ means 200 nM-1000 nM)
Cc1cc(C)n(-c2nc(Nc3ccc(Cl)cc3)cc(N[C@@H](C)C(N)=O)n2)n1 (single isomer, unassigned) [Compound 124, (−)-2-((6-((4-chlorophenyl)amino)-2-(3,5-dimethyl-1H-pyrazol-1-yl)pyrimidin-4-yl)amino)propanamide] | ++ (++ means 200 nM-1000 nM)
Cc1cc(C)n(-c2nc(Nc3ccc(F)cc3F)cc(N3CCN[C@H](C(N)=O)C3)n2)n1 (single isomer, unassigned) [Compound 128, (+)-4-(6-((2,4-difluorophenyl)amino)-2-(3,5-dimethyl-1H-pyrazol-1-yl)pyrimidin-4-yl)piperazine-2-carboxamide] | + (+ means >1 uM)
Cc1cc(C)n(-c2cc(N3CCO[C@@H](C(N)=O)C3)nc(Nc3ccc(F)c(F)c3)n2)n1 (single isomer, unassigned) [Compound 132, (−)-4-(2-((3,4-difluorophenyl)amino)-6-(3,5-dimethyl-1H-pyrazol-1-yl)pyrimidin-4-yl)morpholine-2-carboxamide] | +++ (+++ means <200 nM)
Cc1cc(C)n(-c2cc(N3C[C@@H]4C[C@H]3CN4)nc(Nc3ccc(F)c(F)c3)n2)n1 (stereo in doubt) [Compound 109, 4-((1S,4S)-2,5-diazabicyclo[2.2.1]heptan-2-yl)-N-(3,4-difluorophenyl)-6-(3,5-dimethyl-1H-pyrazol-1-yl)pyrimidin-2-amine] | ++ (++ means 200 nM-1000 nM)
CC(=O)N1CCN(c2cc(-n3nc(C)cc3C)nc(Nc3ccc(F)cc3F)n2)CC1 [Compound 104, 1-(4-(2-((2,4-difluorophenyl)amino)-6-(3,5-dimethyl-1H-pyrazol-1-yl)pyrimidin-4-yl)piperazin-1-yl)ethan-1-one] | ++ (++ means 200 nM-1000 nM)
Cc1cc(C)n(-c2cc(N3CCNC(C(N)=O)C3)nc(Nc3ccc(F)cc3F)n2)n1 (stereo not drawn) [Compound 110, 4-(2-((2,4-difluorophenyl)amino)-6-(3,5-dimethyl-1H-pyrazol-1-yl)pyrimidin-4-yl)piperazine-2-carboxamide] | ++ (++ means 200 nM-1000 nM)
Cc1cc(C)n(-c2nc(Nc3ccc(F)c(F)c3)cc(N3CC4(COC4)C3)n2)n1 [Compound 111, N-(3,4-difluorophenyl)-2-(3,5-dimethyl-1H-pyrazol-1-yl)-6-(2-oxa-6-azaspiro[3.3]heptan-6-yl)pyrimidin-4-amine] | +++ (+++ means <200 nM)
Cc1cc(C)n(-c2cc(NC(C)C(N)=O)nc(Nc3ccc(F)c(F)c3)n2)n1 (stereo not drawn) [Compound 113, 2-((2-((3,4-difluorophenyl)amino)-6-(3,5-dimethyl-1H-pyrazol-1-yl)pyrimidin-4-yl)amino)propanamide] | ++ (++ means 200 nM-1000 nM)
Cc1cc(C)n(-c2cc(N3CCNC(C(N)=O)C3)nc(Nc3ccc(F)c(F)c3)n2)n1 (stereo not drawn) [Compound 116, 4-(2-((3,4-difluorophenyl)amino)-6-(3,5-dimethyl-1H-pyrazol-1-yl)pyrimidin-4-yl)piperazine-2-carboxamide] | +++ (+++ means <200 nM)
CCn1cnc2c(-n3nc(C)cc3C)nc(Nc3ccc(F)c(F)c3)cc21 [Compound 120, N-(3,4-difluorophenyl)-4-(3,5-dimethyl-1H-pyrazol-1-yl)-1-ethyl-1H-imidazo[4,5-c]pyridin-6-amine] | + (+ means >1 uM)
Cc1cc(C)n(-c2nc(Nc3ccc(F)c(F)c3)cc(N3CCOC(C(N)=O)C3)n2)n1 (stereo not drawn) [Compound 127, 4-(6-((3,4-difluorophenyl)amino)-2-(3,5-dimethyl-1H-pyrazol-1-yl)pyrimidin-4-yl)morpholine-2-carboxamide] | + (+ means >1 uM)
